Results from the supplement of paper PMC10331698.
± gives the standard deviation of the averaged measurements.

Tests used:
Test in all cases: level (log10 ratio to DMSO vehicle control); higher = higher biomarker level / cell amount than vehicle control
Settings in all cases: in DMSO
[1] = compound: C=C(C)C(=O)OCC(F)(F)C(F)(F)C(F)(F)C(F)(F)C(F)(F)C(F)(F)C(F)(F)F
Experimental: (§1)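 BioMAP Diversity Plus panel of 12 human primary cell co-culture systems (3C, 4H, LPS, SAg, BT, BF4T, BE3C, CASM3C, HDF3CGF, KF3CT, MyoF, Mphg). Compounds were added 1 h before stimulation and left for 24 h (MyoF 48 h; BT 72 h for soluble read-outs or 6 d for IgG). Biomarkers were read by ELISA, cytotoxicity by SRB, PBMC viability and proliferation by Alamar Blue. Each well value was divided by the mean of 8 DMSO control wells on the same plate and log10 transformed; duplicate blinded samples were tested at 4 concentrations.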

Azathioprine = compound: Cn1cnc([N+](=O)[O-])c1Sc1ncnc2[nH]cnc12 [Azathioprine]
Experimental: as §1

[2] = compound: O=C(O)CCC(F)(F)C(F)(F)C(F)(F)C(F)(F)C(F)(F)F [2H,2H,3H,3H-Perfluorooctanoic acid]
Experimental: as §1

[3] = compound: O=C(O)CCC(F)(F)C(F)(F)C(F)(F)F [3:3 Fluorotelomer carboxylic acid]
Experimental: as §1

[4] = compound: O=P(O)(O)CCC(F)(F)C(F)(F)C(F)(F)C(F)(F)C(F)(F)C(F)(F)C(F)(F)C(F)(F)F [((Perfluorooctyl)ethyl)phosphonic acid]
Experimental: as §1

1H,1H-Heptafluorobutanol = compound: OCC(F)(F)C(F)(F)C(F)(F)F [1H,1H-Heptafluorobutanol]
Experimental: as §1

Test System	level (log10) ([1]; 6700 nM)	level (log10) ([1]; 20000 nM)	level (log10) (Azathioprine; 1400 nM)	level (log10) (Azathioprine; 4200 nM)	level (log10) (Azathioprine; 13000 nM)	level (log10) (Azathioprine; 38000 nM)	level (log10) ([2]; 6700 nM)	level (log10) ([2]; 20000 nM)	level (log10) ([2]; 60000 nM)	level (log10) ([3]; 6700 nM)	level (log10) ([3]; 20000 nM)	level (log10) ([3]; 60000 nM)	level (log10) ([4]; 6700 nM)	level (log10) ([4]; 20000 nM)	level (log10) ([4]; 60000 nM)	level (log10) (1H,1H-Heptafluorobutanol; 6700 nM)	level (log10) (1H,1H-Heptafluorobutanol; 20000 nM)	level (log10) (1H,1H-Heptafluorobutanol; 60000 nM)
LPS:CD106/VCAM-1	-0.021 ± 0.05	-0.0085 ± 0.046	-0.0125 ± 0.03	-0.0215 ± 0.028	-0.0595 ± 0.028	-0.155 ± 0.025	0.006 ± 0.023	0.018 ± 0.033	-0.016 ± 0.082	-0.0155 ± 0.0078	0.011 ± 0.0028	-0.0145 ± 0.029	-0.011 ± 0.017	-0.0125 ± 0.0021	-0.05 ± 0.0028	-0.0165 ± 0.0078	0.005 ± 0.0014	0.0035 ± 0.0021
LPS:CD141/Thrombomodulin	0.0115 ± 0.019	-0.015 ± 0.025	0.046 ± 0.061	0.04 ± 0.037	0.0455 ± 0.035	-0.0055 ± 0.067	0.0745 ± 0.043	0.048 ± 0.089	0.009 ± 0.088	-0.0175 ± 0.022	-0.001 ± 0.013	0.0035 ± 0.036	-0.02 ± 0.013	-0.049 ± 0.0085	0.0065 ± 0.028	0.01 ± 0.013	0.003 ± 0.016	-0.008 ± 0.011
LPS:CD142/Tissue Factor	-0.0155 ± 0.032	-0.0245 ± 0.087	0.042 ± 0.028	0.014 ± 0.0042	0.0375 ± 0.0064	-0.0085 ± 0.044	0.0725 ± 0.018	0.063 ± 0.0028	0.0265 ± 0.037	-0.014 ± 0.0014	-0.014 ± 0.011	-0.0015 ± 0.019	-0.023 ± 0.0014	-0.01 ± 0.0099	0.032 ± 0.033	0.012 ± 0.05	0.015 ± 0.034	-0.0125 ± 0.0078
LPS:CXCL8/IL-8	-0.0045 ± 0.0092	0.033 ± 0.011	0.035 ± 0.025	0.0065 ± 0.013	0.0085 ± 0.0092	-0.049 ± 0.072	0.054 ± 0.034	0.0715 ± 0.09	0.121 ± 0.11	0.004 ± 0.0042	-0.0105 ± 0.0021	0.0165 ± 0.03	-0.021 ± 0.021	-0.0255 ± 0.011	-0.04 ± 0.0057	0.0085 ± 0.013	-0.006	-0.025 ± 0.0014
LPS:IL-1alpha	0.016 ± 0.048	0.044 ± 0.016	0.0405 ± 0.067	0.04 ± 0.064	0.0165 ± 0.0064	-0.0185 ± 0.00071	0.0025 ± 0.00071	0.029 ± 0.035	0.0415 ± 0.00071	-0.005 ± 0.0071	-0.0245 ± 0.0078	-0.0095 ± 0.029	-0.0215 ± 0.043	-0.0045 ± 0.029	-0.024 ± 0.13	-0.028 ± 0.025	-0.068 ± 0.0085	0.0095 ± 0.015
LPS:M-CSF	0.005 ± 0.017	0.03 ± 0.017	-0.011 ± 0.025	-0.024 ± 0.018	-0.0475 ± 0.056	-0.125 ± 0.0042	-0.0035 ± 0.0035	0.008 ± 0.014	0.0035 ± 0.03	-0.0335 ± 0.052	-0.0095 ± 0.016	0.0215 ± 0.033	-0.0385 ± 0.018	-0.052 ± 0.037	-0.183 ± 0.072	0.011 ± 0.0071	-0.007 ± 0.055	0.006 ± 0.016
LPS:SRB	-0.0025 ± 0.0078	-0.0045 ± 0.005	-0.002 ± 0.0099	-0.0105 ± 0.0078	-0.0215 ± 0.013	-0.039 ± 0.014	-0.01 ± 0.0014	-0.0115 ± 0.0035	-0.0035 ± 0.0064	-0.008 ± 0.0014	-0.0025 ± 0.0064	0.0065 ± 0.0064	-0.01 ± 0.0042	-0.0195 ± 0.011	-0.08 ± 0.047	-0.0085 ± 0.0035	0.005 ± 0.0014	-0.003 ± 0.0028
LPS:sPGE2	-0.0035 ± 0.05	-0.031 ± 0.034	-0.0075 ± 0.033	0.037	-0.022 ± 0.018	-0.0985 ± 0.03	-0.0095 ± 0.033	-0.08 ± 0.0014	-0.111 ± 0.049	-0.0115 ± 0.0092	-0.0165 ± 0.036	0.0205 ± 0.025	0.0605 ± 0.0021	0.0675 ± 0.011	0.17 ± 0.023	0.025 ± 0.04	-0.0225 ± 0.052	0.009 ± 0.027
LPS:sTNF-alpha	0.0045 ± 0.088	0.0175 ± 0.011	-0.0135 ± 0.022	-0.015 ± 0.0099	-0.035 ± 0.017	-0.233 ± 0.0078	-0.017 ± 0.0014	-0.0165 ± 0.005	-0.014 ± 0.0085	-0.0235 ± 0.023	-0.0195 ± 0.019	-0.0115 ± 0.032	0.0165 ± 0.088	0.008 ± 0.1	-0.004 ± 0.18	0.005	0.0015 ± 0.019	-0.0155 ± 0.032
SAg:CCL2/MCP-1	-0.0015 ± 0.0035	0.0175 ± 0.0092	-0.004 ± 0.017	-0.0275 ± 0.0064	-0.054 ± 0.011	-0.112 ± 0.056	-0.005 ± 0.0085	-0.007 ± 0.02	-0.019 ± 0.025	0.005 ± 0.0014	-0.0145 ± 0.016	0.0145 ± 0.028	0.006 ± 0.0042	0.004 ± 0.016	-0.0195 ± 0.053	0.0075 ± 0.019	0.0065 ± 0.025	0.008 ± 0.05
SAg:CD38	-0.0195 ± 0.00071	0.011 ± 0.0071	0.0035 ± 0.0035	-0.0035 ± 0.00071	-0.0265 ± 0.013	-0.0765 ± 0.03	-0.0215 ± 0.037	-0.024 ± 0.041	-0.0595 ± 0.03	-0.012 ± 0.024	0.008 ± 0.013	0.0015 ± 0.0035	-0.015 ± 0.024	-0.0155 ± 0.005	-0.0945 ± 0.023	-0.028 ± 0.064	-0.0145 ± 0.015	-0.0115 ± 0.088
SAg:CD40	-0.0375 ± 0.00071	-0.0425 ± 0.011	-0.0125 ± 0.042	-0.0095 ± 0.019	-0.055 ± 0.025	-0.118 ± 0.033	-0.0325 ± 0.054	-0.025 ± 0.052	-0.034 ± 0.048	-0.002 ± 0.0071	-0.008 ± 0.011	-0.015 ± 0.0042	-0.0305 ± 0.0078	-0.0405 ± 0.018	-0.136 ± 0.025	-0.011 ± 0.018	0.0045 ± 0.0092	0.0175 ± 0.074
SAg:CD62E/E-Selectin	-0.001 ± 0.024	0.0155 ± 0.011	-0.007 ± 0.013	-0.0485 ± 0.023	-0.07 ± 0.027	-0.284 ± 0.018	-0.01 ± 0.03	0.0015 ± 0.025	0.029 ± 0.016	-0.0265 ± 0.0021	-0.0185 ± 0.032	-0.007 ± 0.0085	0.0135 ± 0.0021	0.0275 ± 0.019	-0.0155 ± 0.03	0.003 ± 0.013	0.01 ± 0.038	0.0125 ± 0.053
SAg:CD69	-0.01 ± 0.05	-0.001 ± 0.045	0.0215 ± 0.044	-0.0295 ± 0.016	-0.039 ± 0.018	-0.12 ± 0.013	-0.0265 ± 0.043	-0.025 ± 0.038	-0.0145 ± 0.028	0.001 ± 0.04	-0.005 ± 0.023	-0.021 ± 0.0057	-0.01 ± 0.017	-0.016 ± 0.05	-0.006 ± 0.052	-0.013 ± 0.017	-0.0035 ± 0.016	0.02 ± 0.016
SAg:CXCL8/IL-8	-0.024 ± 0.031	0.0185 ± 0.0064	0.022 ± 0.1	-0.038 ± 0.061	-0.13 ± 0.021	-0.304 ± 0.013	-0.029 ± 0.079	-0.0335 ± 0.039	0.0525 ± 0.018	-0.0145 ± 0.00071	-0.016 ± 0.011	-0.0035 ± 0.013	0.022 ± 0.023	0.037 ± 0.03	0.052 ± 0.011	0.012 ± 0.0085	-0.0055 ± 0.0021	-0.0045 ± 0.1
SAg:CXCL9/MIG	-0.003 ± 0.017	0.009 ± 0.0014	0.006 ± 0.024	0.002 ± 0.0057	0.0025 ± 0.0078	0.008 ± 0.0085	-0.0005 ± 0.015	-0.0105 ± 0.018	0 ± 0.0057	0.001 ± 0.0028	-0.009 ± 0.0014	0.001 ± 0.014	0.001 ± 0.0028	0.006 ± 0.0085	-0.0115 ± 0.023	-0.003 ± 0.031	-0.001 ± 0.018	0.018 ± 0.014
SAg:PBMC Cytotoxicity	0.0115 ± 0.005	0.0265 ± 0.046	-0.007 ± 0.033	-0.0015 ± 0.044	-0.0385 ± 0.03	-0.0635 ± 0.023	0.0125 ± 0.0078	0.0255 ± 0.039	0.0115 ± 0.039	-0.022 ± 0.0071	-0.014 ± 0.031	-0.0045 ± 0.035	-0.025 ± 0.017	-0.04 ± 0.0042	-0.037 ± 0.037	-0.0165 ± 0.012	-0.024 ± 0.024	0.0155 ± 0.047
